These compounds were tested against Thromboxane-A synthase (Rattus norvegicus) (UniProt P49430) (assay: Inhibitory activity to inhibit Inophore-induced arachidonic acid metabolism (inhibition of TXB2 formation) in rat).
Thromboxane-A synthase (Rattus norvegicus), sequence (P49430 whole entry, looked up): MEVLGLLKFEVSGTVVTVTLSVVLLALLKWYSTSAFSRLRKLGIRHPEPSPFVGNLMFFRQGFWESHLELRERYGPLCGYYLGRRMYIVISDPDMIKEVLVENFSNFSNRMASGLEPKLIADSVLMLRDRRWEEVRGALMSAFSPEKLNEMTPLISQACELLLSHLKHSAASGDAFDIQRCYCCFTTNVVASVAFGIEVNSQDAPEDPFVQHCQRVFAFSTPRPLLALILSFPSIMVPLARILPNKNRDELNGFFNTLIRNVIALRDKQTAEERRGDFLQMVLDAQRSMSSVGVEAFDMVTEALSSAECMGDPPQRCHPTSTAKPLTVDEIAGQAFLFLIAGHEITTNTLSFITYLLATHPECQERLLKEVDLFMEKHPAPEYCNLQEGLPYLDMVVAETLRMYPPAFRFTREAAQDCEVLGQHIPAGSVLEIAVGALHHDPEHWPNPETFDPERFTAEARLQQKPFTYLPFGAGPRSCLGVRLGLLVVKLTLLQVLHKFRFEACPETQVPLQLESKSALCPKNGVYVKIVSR

| Structure (SMILES) | IC50 [nM] |
| --- | --- |
| CC(C)c1ccc2c(c1)c(SC(C)(C)C)c(CC(C)(C)C(=O)O)n2Cc1ccc(Cl)cc1 | 2000 |
| CCCc1c(OCCCCCOc2cc3c(cc2C(C)=O)CCC(C(=O)O)O3)ccc(C(C)=O)c1O (stereo not drawn) [Ro-23-3544] | 6000 |
| COc1ccc2c(c1)c(CC(=O)O)c(C)n2C(=O)c1ccc(Cl)cc1 [indometacin] | 100 |
